From patent publication US20130345419A1, “AZOLE DERIVATIVE” (TAISHO PHARMACEUTICAL CO., LTD., priority 2011, published 2013)
Values after ≈ are worked out from the molar mass of the structure shown.

Key:
[1] = Test 2: dissolution test in 1,3-butylene glycol/water/ethanol base; format: physicochemical; details: base: 5 g 1,3-butylene glycol + 10 g water, ethanol to 100 mL, stirred at 25° C. for 7 days, HPLC
Protocol: (Test 2) Dissolution Test
To 5 g of 1,3-butylene glycol, 10 g of water was added and the mixture was stirred until homogeneity; thereafter, ethanol was added to make a total volume of 100 mL, whereby a base was prepared.

[2] = test system: C57BL mice; experiment: Test 3: hair development stimulating effect in shaven mouse model (Compound 1); format: in vivo; details: 5% (w/v) solution in Test 2 base, 200 μL on shaven back once daily, day 15 of the administration and onward
Protocol: (Test 3) Test for Measuring Hair Development Stimulating Effect in Shaven Mouse Model
(§1) C57BL mice (female, ca. 7-wk old) were shaven on the back and the base prepared in Test 2 or a solution prepared by dissolving 5% (w/v) of Compound 1 in this base was administered by applying them to the shaven area in 200-μL portions once daily starting 3 days after the shaving (each group consisting of 10 heads.) Every 2 or 3 days after the start of the administration, the state of hair development in the shaven area was scored in accordance with the following criteria.
(§2) Criteria for scoring the hair development: 1=No hair development. 2=Hair development in less than 30% of the shaven area. 3=Hair development in at least 30% but less than 60% of the shaven area. 4=Hair development in at least 60% but less than 90% of the shaven area. 5=Hair development in at least 90% of the shaven area.

[3] = biological target: T1, human recombinant FKBP12 (Homo sapiens, UniProt P62942); experiment: Test 1: immunophilin FKBP12 rotamase (peptidylprolyl isomerase) inhibiting activity; format: biochemical; details: 12 nM human recombinant FKBP12, substrate succinyl-Ala-Phe-Pro-Phe-paranitroanilide 48 μM, 4° C.; read-out: PKBP12 rotamase inhibiting activity IC50
T1 construct: purchased Sigma F-5398
T1 sequence (P62942 whole entry): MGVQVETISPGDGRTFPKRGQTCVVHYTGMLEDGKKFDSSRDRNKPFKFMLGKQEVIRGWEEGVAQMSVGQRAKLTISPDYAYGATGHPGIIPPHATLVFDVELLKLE
Protocol: (Test 1) Test for Measuring Immunophilin FKBP12 Rotamase Activity
The rotamase (peptidylprolyl isomerase) inhibiting activity of each test compound was measured by a known method (Harding et al., Nature 341, 758-760, 1989; Holts et al., J. Am. Chem. Soc. 115, 9925-9938, 1993.) To be more specific, a plastic cuvette was charged with 35 mM HEPES (pH 7.8), 12 nM human recombinant FKBP12 (Sigma, F-5398), 0.4 mg/mL α-chymotrypsin, and a test compound dissolved in DMSO at varying concentrations (DMSO's final concentration was 0.1%.) Subsequently, 24 mM of the substrate peptide, succinyl-Ala-Phe-Pro-Phe-paranitroanilide, as dissolved in trifluoroethanol containing 500 mM of LiCl was added to give a final concentration of 48 μM, whereupon reaction started. The reaction was carried out at 4° C. and the change in absorbance at 390 nm accompanying the liberation of the paranitroaniline product was monitored. A calculated initial rate minus the corresponding value in the absence of the enzyme was used as an index of rotamase activity. The rotamase inhibiting activity of a test compound was expressed in relative values (%) with respect to the control value of rotamase activity in the absence of the compound, and the concentration of the compound at which it was capable of inhibiting rotamase activity by 50% was calculated as an IC50 value from its concentration response curve.

[4] = test system: C57BL mice; experiment: Test 5: hair development stimulating effect in shaven mouse model (Compound 40); format: in vivo; details: 5% (w/v) solution in Test 4 base, 200 μL on shaven back once daily, day 15 of the administration and onward
Text: as §2
(Test 5) Test for Measuring Hair Development Stimulating Effect in Shaven Mouse Model
as §1, with “Test 4” for “Test 2”, “Compound 40” for “Compound 1”, “the criteria described in Test 3.” for “the following criteria.”

[5] = Test 4: dissolution test in ethanol/water base; format: physicochemical; details: organic solvent or mixture, thermodynamic from solid; base: 79 mL ethanol, water to 100 mL; stirred at 5° C. for 3 days; HPLC
Protocol: (Test 4) Dissolution Test
To 79 mL of ethanol, water was added to give a total volume of 100 mL, whereby a base was prepared. An excess amount of a test compound was put into a test tube, the prepared base was added, and the mixture was stirred at 5° C. for 3 days and passed through a membrane filter (0.45 μm); the resulting filtrate was diluted with acetonitrile and the concentration of the diluted solution was measured by HPLC to determine the solubility of the compound.

[6] = test system: proliferating cell nuclear antigen (PCNA); experiment: Test 6: anagen induction stimulating effect in shaven mouse model, skin PCNA by ELISA; format: in vivo; details: 5% (w/v) in 80% ethanol, 200 μL once daily for 2 days, skin sampled about 4 hours after second administration, C57BL mice
Protocol: (Test 6) Test for Measuring Anagen Induction Stimulating Effect in Shave Mouse Model
The anagen induction stimulating effect of a compound was measured by the following method with the quantity of skin PCNA being used as an index.
C57BL mice (female, ca. 7-wk old) were shaven on the back and a base (80% ethanol) or a solution prepared by dissolving 5% (w/v) of Compound 40, 52, 59, 61, 63, 64 or 66 in this base was administered by applying them to the shaven area in 200-μL portions once daily for 2 days starting 3 days after the shaving (each group consisting of 5 heads.) About 4 hours after the administration on the second day, the skin at the application site was sampled and homogenized in a buffer containing 50 mM Tris-HCl (pH 7.6), 150 mM NaCl, 1% NP-40, and a protease inhibitor. By a centrifugal separation procedure, a PCNA containing protein solution was prepared and the quantity of PCNA in the solution was measured with a PCNA-ELISA kit of Calbiochem, Inc.

Row | solubility at 7 days ([1]; 1,3-butylene glycol/water/ethanol base, organic solvent or mixture, thermodynamic from solid) [mg/mL] | IC50 [3] [µM] | solubility [1] [mg/mL] | solubility at 3 days [5] [mg/mL] | Compound | hair development scores versus base administered group [2] | hair development scores versus base administered group [4] | quantity of skin PCNA versus base administered group [6]
1 | 57.5 | 0.049 |  |  | COc1ccc(OCc2cc([C@@H]3CCCN3C(=O)C(F)(F)C3(O)CC(C)(C)CC(C)(C)C3)no2)cc1OC [Compound 1, (S)-1-(2-(5-((3,4-Dimethoxyphenoxy)methyl)isoxazol-3-yl)pyrrolidin-1-yl)-2,2-difluoro-2-(1-hydroxy-3,3,5,5-tetramethylcyclohexyl)ethanone] | higher than those in the base administered group |  | 
2 |  |  | 30.8 |  | COc1ccc(OCc2nc([C@@H]3CCCN3C(=O)C(F)(F)C3(O)CC(C)(C)CC(C)(C)C3)no2)cc1OC [comparative example, reference compound] |  |  | 
3 |  | 0.083 |  | 113 (≈ 237 mM) | CC1(C)CC(C)(C)CC(O)(C(F)(F)C(=O)N2CCC[C@H]2c2cc(COc3cccnc3)on2)C1 [Compound 40, (S)-2,2-Difluoro-2-(1-hydroxy-3,3,5,5-tetramethylcyclohexyl)-1-(2-(5-((pyridin-3-yloxy)methyl)isoxazol-3-yl)pyrrolidin-1-yl)ethanone] |  | higher than those in the base administered group | higher values for the quantity of skin PCNA than the group administered with the base
